Laboratory results as given in paper PMC5502055, “Phase II study of lanreotide autogel in Japanese patients with unresectable or metastatic well-differentiated neuroendocrine tumors” (Investigational New Drugs, 2017).

Legend:
[1] = system: Japanese patients with grade (G) 1/G2 NET; test: Phase II and extension study: anti-tumor efficacy by RECIST ver. 1.1 (CBR, PFS, OS, ORR, sum of target lesion diameters); type: in vivo, human
Procedure: A phase II, multicenter, single-arm study was conducted at 10 sites in Japan. Patients were treated via deep subcutaneous (buttocks) injection of lanreotide at a dosage of 120 mg once every 4 weeks for a 48-week period. Patients who completed the phase II study were enrolled in an additional multicenter single-arm extension study that used the same dosage and injection methods and involved 7 of the 10 initial sites.
Japanese patients with G1 or 2 (mild/moderate malignancy) NET and an age of ≥20 years were selected for the phase II study according to the World Health Organization (WHO) 2010 classification except for those whose primary tumors were located in the lungs, bronchi, or thymus (according to the WHO 2004 classification). Other inclusion criteria were the following: metastatic disease and/or a locally advanced inoperable tumor, or refusal of surgery, and target lesions based on the Response Evaluation Criteria in Solid Tumors (RECIST) ver.1.1, and a score of 0–2 on the WHO performance status. The exclusion criteria are described in the Electronic Supplementary Material. These criteria allowed the enrolment of the same target population as that of the CLARINET study: patients with G1 or 2 NET with primary tumor sites in the pancreas, midgut, hindgut, or unknown; non-functional NET except gastrinomas adequately controlled by proton pump inhibitors for 4 months or longer; and absence of multiple endocrine neoplasia.
(§1) The primary endpoint was the clinical benefit rate (CBR) at 24 weeks after the first injection, which served to indicate and confirm the anti-tumor effects of lanreotide. The CBR was defined as the percentage of patients in the analysis set who achieved a complete response or partial response (PR) as the best overall response, or those who maintained stable disease (SD) over 24 weeks after the first injection by central review. Secondary efficacy endpoints were progression-free survival (PFS), overall survival (OS), objective response rate (ORR), and the percent change from baseline in the sum of the diameters of target lesion from baseline. The PFS was defined as the time from the first injection until progressive disease (PD) or death. Regarding tumor lesion imaging ≥4 weeks before the baseline, the investigators evaluated computed tomography (CT) or magnetic resonance imaging (MRI) data based on the RECIST (ver. 1.1). To evaluate anti-tumor effects after baseline, CT or MRI data were evaluated centrally by an independent third party based on the RECIST (ver. 1.1). During the study period, images of each patient were determined using the same method (CT or MRI), according to the standardized procedure at each site. CT or MRI was conducted every 12 weeks from the first injection. Regarding quality of life (QOL), patients completed the European Organization for Research and Treatment of Cancer (EORTC) QOL questionnaire (QLQ)-C30 (ver. 3.0) every 12 weeks during the 48 -week period after the first injection and every 24 weeks thereafter.
Full analysis set (FAS) and CLARINET-like FAS which was satisfied eligibility criteria of the CLARINET study were used for efficacy analysis. Safety analysis set which included patients who had received the study drug at least once was used for safety analysis. Per protocol set (PPS) was used for pharmacokinetic analysis.
In the primary analysis, the CBR point estimate at 24 weeks after the first injection and an exact F distribution-based 95% confidence interval (CI) were calculated. The CBR was selected as the primary endpoint, because maintaining SD was deemed beneficial and clinically meaningful for NET patients. In the secondary analysis, Kaplan–Meier curves of PFS and OS were prepared, and median values and 95% CIs were calculated. The ORRs at 24, 48, and 60 weeks after the first injection were also calculated. […]

[2] = system: Japanese patients with grade (G) 1/G2 NET; test: Quality of life, EORTC QLQ-C30 (ver. 3.0); type: in vivo, human; conditions: EORTC QLQ-C30, individual terms
Source text: as §1, with “The PFS was defined as the time from the first injection until progressive disease (PD) or death.” left out, “CT or MRI was conducted every 12 weeks from the first injection. Regarding quality of life (QOL), patients completed the European Organization for Research and Treatment of Cancer (EORTC) QOL questionnaire (QLQ)-C30 (ver. 3.0) every 12 weeks during the 48 -week period after the first injection and every 24 weeks thereafter.” left out
In the primary analysis, the CBR point estimate at 24 weeks after the first injection and an exact F distribution-based 95% confidence interval (CI) were calculated. […] The ORRs at 24, 48, and 60 weeks after the first injection were also calculated. […]

[3] = FAS n=28, printed as decreased by

`CC(C)[C@@H]1NC(=O)[C@H](CCCCN)NC(=O)[C@@H](Cc2c[nH]c3ccccc23)NC(=O)[C@H](Cc2ccc(O)cc2)NC(=O)[C@@H](NC(=O)[C@H](N)Cc2ccc3ccccc3c2)CSSC[C@@H](C(=O)N[C@H](C(N)=O)[C@@H](C)O)NC1=O` [lanreotide] was tested, and the “clinical benefit rate (CBR) at 24 weeks after the first injection” value ([1]; 120 mg deep s.c. every 4 weeks, full analysis set, 18/28 patients, 95% CI 44.1%, 81.4%, central review) was 64.3%, the “CBR at 24 weeks after the first injection” value ([1]; CLARINET-like FAS, 15/22 patients, 95% CI 45.1%, 86.1%) was 68.2% and the “median PFS” value ([1]; FAS n=28, Kaplan-Meier) was 9.1 months. The “median PFS” value ([1]; FAS n=28, Kaplan-Meier, 95% CI 24.1, 53.1 weeks) was 36.3 weeks, the “percentage change from baseline in sum of diameters of target lesion at best time point, mean ± SD (decrease)” value [1, 3] was 3.6 ± 21.3% and the “percentage change from baseline in sum of diameters of target lesion at best time point, minimum value (decrease)” value [1, 3] was 58.5%. The “percentage change from baseline in sum of diameters of target lesion at best time point, maximum value (increase)” value ([1]; FAS n=28, printed as increased by) was 53.4%, the “CBR Week 24” value ([1]; FAS subgroup Age (years) >65, 7/12) was 58.3 (7/12) % and the “Median time PFS” value ([1]; FAS subgroup Age (years) >65, N=12, median (95% CI)) was 36.64 weeks. For the same molecule, the “CBR Week 24” value ([1]; FAS subgroup Age (years) ≤65, 11/16) was 68.8 (11/16) %, the “Median time PFS” value ([1]; FAS subgroup Age (years) ≤65, N=16, median (95% CI)) was 36.29 (12.29, 53.14) weeks and the “CBR Week 24” value ([1]; FAS subgroup Baseline TGR (%/month) <10, 10/13) was 76.9 (10/13) %. For the same molecule, the “Median time PFS” value ([1]; FAS subgroup Baseline TGR (%/month) <10, N=13, median (95% CI)) was 59.43 weeks, the “CBR Week 24” value ([1]; FAS subgroup Baseline TGR (%/month) ≥10, 8/15) was 53.3 (8/15) % and the “Median time PFS” value ([1]; FAS subgroup Baseline TGR (%/month) ≥10, N=15, median (95% CI)) was 35.29 (12.14, 37.14) weeks. For the same molecule, the “CBR Week 24” value ([1]; FAS subgroup Grade of tumor Grade 1, 5/9) was 55.6 (5/9) %, the “CBR Week 24” value ([1]; FAS subgroup Grade of tumor Grade 2, 13/19) was 68.4 (13/19) % and the “Median time PFS” value ([1]; FAS subgroup Grade of tumor Grade 2, N=19, median (95% CI)) was 36.29 (21.29, 49.14) weeks. The “CBR Week 24” value ([1]; FAS subgroup Hepatic tumor load (%) >10 and ≤25, 4/6) was 66.7 (4/6) %, the “Median time PFS” value ([1]; FAS subgroup Hepatic tumor load (%) >10 and ≤25, N=6, median (95% CI)) was 35.79 weeks and the “CBR Week 24” value ([1]; FAS subgroup Hepatic tumor load (%) >25 and ≤50, 1/3) was 33.3 (1/3) %. The “Median time PFS” value ([1]; FAS subgroup Hepatic tumor load (%) >25 and ≤50, N=3, median (95% CI)) was 25.14 (24.14, 37.14) weeks, the “CBR Week 24” value ([1]; FAS subgroup Hepatic tumor load (%) >50, 1/1) was 100.0 (1/1) % and the “CBR Week 24” value ([1]; FAS subgroup Hepatic tumor load (%) ≥0 and ≤10, 12/18) was 66.7 (12/18) %. The “Median time PFS” value ([1]; FAS subgroup Hepatic tumor load (%) ≥0 and ≤10, N=18, median (95% CI)) was 36.36 (21.29, 59.43) weeks, the “CBR Week 24” value ([1]; FAS subgroup Ki67 index (%) >2 and ≤5, 5/8) was 62.5 (5/8) % and the “Median time PFS” value ([1]; FAS subgroup Ki67 index (%) >2 and ≤5, N=8, median (95% CI)) was 42.72 weeks. The “CBR Week 24” value ([1]; FAS subgroup Ki67 index (%) >5 and <10, 8/9) was 88.9 (8/9) %, the “Median time PFS” value ([1]; FAS subgroup Ki67 index (%) >5 and <10, N=9, median (95% CI)) was 36.29 (21.29, 53.14) weeks and the “CBR Week 24” value ([1]; FAS subgroup Ki67 index (%) Unknown, 0/1) was 0.0 (0/1) %. The “Median time PFS” value ([1]; FAS subgroup Ki67 index (%) Unknown, N=1, 95% CI NC) was 12.14 weeks, the “CBR Week 24” value ([1]; FAS subgroup Ki67 index (%) ≤ 2, 5/8) was 62.5 (5/8) % and the “CBR Week 24” value ([1]; FAS subgroup Ki67 index (%) ≥10 and <20, 0/2) was 0.0 (0/2) %. For the same molecule, the “Median time PFS” value ([1]; FAS subgroup Ki67 index (%) ≥10 and <20, N=2, median (95% CI)) was 12.07 (12.00, 12.14) weeks, the “CBR Week 24” value ([1]; FAS subgroup Sex Female, 6/9) was 66.7 (6/9) % and the “Median time PFS” value ([1]; FAS subgroup Sex Female, N=9, median (95% CI)) was 53.14 weeks. For the same molecule, the “CBR Week 24” value ([1]; FAS subgroup Sex Male, 12/19) was 63.2 (12/19) %, the “Median time PFS” value ([1]; FAS subgroup Sex Male, N=19, median (95% CI)) was 36.14 (12.29, 49.14) weeks and the “CBR Week 24” value ([1]; FAS subgroup primary tumor site Foregut (except for pancreas), 0/1) was 0.0 (0/1) %. For the same molecule, the “Median time PFS” value ([1]; FAS subgroup primary tumor site Foregut (except for pancreas), N=1, 95% CI NC) was 12.00 weeks, the “CBR Week 24” value ([1]; FAS subgroup primary tumor site Hindgut, 2/8) was 25.0 (2/8) % and the “Median time PFS” value ([1]; FAS subgroup primary tumor site Hindgut, N=8, median (95% CI)) was 22.65 (12.14, 49.14) weeks. The “CBR Week 24” value ([1]; FAS subgroup primary tumor site Midgut, 2/2) was 100.0 (2/2) %, the “CBR Week 24” value ([1]; FAS subgroup primary tumor site Other/ Unknown, 4/5) was 80.0 (4/5) % and the “Median time PFS” value ([1]; FAS subgroup primary tumor site Other/ Unknown, N=5, median (95% CI)) was 36.14 weeks. For the same molecule, the “CBR Week 24” value ([1]; FAS subgroup primary tumor site Pancreas, 10/12) was 83.3 (10/12) %, the “Median time PFS” value ([1]; FAS subgroup primary tumor site Pancreas, N=12, median (95% CI)) was 36.79 (24.14, 59.43) weeks and the “CBR Week 24” value ([1]; FAS subgroup prior treatment for NET Absent, 6/6) was 100.0 (6/6) %. The “CBR Week 24” value ([1]; FAS subgroup prior treatment for NET Present, 12/22) was 54.5 (12/22) %, the “Median time PFS” value ([1]; FAS subgroup prior treatment for NET Present, N=22, median (95% CI)) was 36.22 (12.29, 49.14) weeks and the “CBR Week 24” value ([1]; FAS subgroup progressive disease at baseline Absent, 13/17) was 76.5% (13/17). For the same molecule, the “Median time PFS” value ([1]; FAS subgroup progressive disease at baseline Absent, N=17, median (95% CI)) was 53.14 weeks, the “CBR Week 24” value ([1]; FAS subgroup progressive disease at baseline Present, 5/11) was 45.5% (5/11) and the “Median time PFS” value ([1]; FAS subgroup progressive disease at baseline Present, N=11, median (95% CI)) was 25.14 (12.00, 37.14) weeks. For the same molecule, the “patients without increase in sum of diameters of target lesion at best time point” value ([1]; FAS, 16 of 28 patients) was 57.1%, the “patients with PR or SD as best overall response” value ([1]; FAS, 22 of 28 patients) was 78.6% and the “ORR at Week 60” value ([1]; FAS, 1 patient with PR at 60 weeks in extension study, 95% CI 0.1%, 18.3%) was 3.6%. For the same molecule, the “median OS” value ([1]; Kaplan-Meier) was “not reached”, the “Forty-eight weeks survival rate” value ([1]; Kaplan-Meier estimate) was 96.4% and the “median PFS” value ([1]; population with PD at baseline (11 patients)) was 6.3 months. For the same molecule, the “median PFS” value ([1]; population with PD at baseline (11 patients), 95% CI 12.0, 37.1 weeks) was 25.1 weeks, the “median PFS” value ([1]; population without PD at baseline (17 patients)) was 13.3 months and the “median PFS” value ([1]; population without PD at baseline (17 patients), 95% CI 24.1 weeks, Not calculable) was 53.1 weeks. For the same molecule, the “QOL transformed scores versus baseline” value [2] was “did not differ significantly”.
